One block for each compound: values may come before it.
Legend:
[1] = Anti-DPPH test (free radical scavenging); details: average of 2 assays
Source text: 1.2 Methods and principle of this experiment: The anti-free radical (anti-FR) activity has been evaluated by chemical tests for the evaluation of the potential to scavenge free radicals R (DPPH test) and hydroxyl radicals HO. The anti-FR activity has been evaluated also by biochemical tests to address the potential for scavenging of a kind of reactive oxygen species (ROS), the so called super oxide anion (O2). […] Xanthine oxydase (XOD) is an enzyme activated during oxidative stress, this enzyme catalyses the O2 release along the degradation of hypoxanthin (HX) which has been overproduced by a disruption of energetic cell metabolism. […] Principle: DPPH (diphenylpicryl-hydrazyl) is a stable free radical which forms a purple solution. The purple solution of DPPH^o has a whitening effect due to components that act as radical-scavengers. […] The results are expressed in percent inhibition of DPPH radical against control. The aim of this test is to show an anti-free radical activity.

[2] = system: strains of Gram-positive and Gram-negative bacteria; details: same bacterial strains; cited from earlier work
[3] = system: Raphanus sativus seed germination; details: cited from earlier work
B16 melanocytes = test: Inhibition of melanin synthesis on B16 melanocytes; type: cell-based; details: for Rate of cellular proteins / Rate of melanin: control = 100; for rate of released melanin (comment): treated B16 melanocytes
Description: Aim of the experiment: to evaluate the potential of compounds to lower the melanin synthesis; the compounds have been tested on cell culture of melanocytes called B16.
• Seeding of melanocytes in growth medium • Incubation for 3 days at 37° C., CO2=5% (atmosphere: 5% carbon dioxide in air) • Exchange of the growth medium by a medium with a range of concentration of ingredients to be tested • Incubation for 3 days at 37° C., CO2=5% (atmosphere: 5% carbon dioxide in air) • Recording of Cellular levels of protein by Bradford's method • Recording of melanin by a spectrophotometric method (OD at 475 nm)

Lipoxygenase = test: Inhibition test on lipoxygenase (superoxide anions, luminol); type: biochemical
Source text: (§1) 1.2 Methods and principle of this experiment: The anti-free radical (anti-FR) activity has been evaluated by chemical tests for the evaluation of the potential to scavenge free radicals R (DPPH test) and hydroxyl radicals HO. The anti-FR activity has been evaluated also by biochemical tests to address the potential for scavenging of a kind of reactive oxygen species (ROS), the so called super oxide anion (O2). The O2 originates mainly from xanthine oxydase and lipoxygenase activities. Xanthine oxydase (XOD) is an enzyme activated during oxidative stress, this enzyme catalyses the O2 release along the degradation of hypoxanthin (HX) which has been overproduced by a disruption of energetic cell metabolism.
Lipoxygenase was incubated with a specific substrate (unsaturated fatty acid) and the ingredient to be tested. Then the rate of released superoxide anions was evaluated by a luminescent probe (luminol). Caffeic acid was tested as reference ingredient.

[4] = Anti-HO test with deoxyribose (Fenton's reaction), reaction with EDTA
Source text: as §1
Principle: The hydroxyl radical HO— (formed by H2O2 in presence of Fe++ with EDTA) oxidises deoxyribose (a component of DNA), then a pink compound is formed by condensation of thiobarbituric acid with oxidised form of deoxyribose. The optical density at 532 nm corresponds to the level of oxidised deoxyribose. An anti-free radical substance reacts with these radicals HO— and reduces the formation of this pink compound.
(§2) The results are expressed in percent of inhibition of HO— radical against control. The aim of this test is to show an anti-free radical activity.

[5] = Anti-HO test with deoxyribose (Fenton's reaction), reaction without EDTA
Source text: as §1
[…] The optical density at 532 nm corresponds to the level of oxidised deoxyribose. An anti-free radical substance reacts with these radicals HO— and reduces the formation of this pink compound.
as §2

Xanthine oxidase = Xanthine oxidase (Homo sapiens, UniProt P47989); test: Inhibition test on xanthine oxidase (superoxide anion revealed by NBT); type: biochemical
Source text: as §1
Xanthine oxydase is an enzyme induced during oxidative stress: it catabolises the puric bases (adenine, guanine) in uric acid and superoxide anions O2— dismutates spontaneously (or by the action of SOD=superoxyde dismutase) in H2O2 and O2.
A substance with an anti-free-radical-activity absorbs or destroys the O2— anion and thereby it reduces the optical density.
The results are expressed in percent of inhibition of O2— radical against control. The aim of this test is to show an anti-free radical activity.
As to the meaning of U/ml: for an enzyme, the dose is expressed in Units/ml for unity. In the other cases, it is not enzymes.

human fibroblasts = test: Inhibition of UVA effect on human fibroblasts (released MDA); type: cell-based
Description: Aim of the experiment: Determination of the potential of the tested ingredient to reduce negative effects of UV-A radiation on the survival rate of human fibroblasts.
• Seeding of human fibroblasts in a growth medium • Incubation for 3 days at 37° C., CO2=5% (atmosphere: 5% carbon dioxide in air) • Exchange of the growth medium by a medium with a range of concentration of ingredients to be tested • Incubation for 2 days at 37° C., CO2=5% • Exchange of the medium with ingredients by a balanced salt solution and UV-A irradiation (20 J/cm^2) • Recording of released MDA levels by spectro-fluorimetry. (MDA (malonaldialdehyde) is a product of oxidative degradation of lipids from cell membranes)

Chain of Xanthine oxidase (P47989 whole entry, species assumed): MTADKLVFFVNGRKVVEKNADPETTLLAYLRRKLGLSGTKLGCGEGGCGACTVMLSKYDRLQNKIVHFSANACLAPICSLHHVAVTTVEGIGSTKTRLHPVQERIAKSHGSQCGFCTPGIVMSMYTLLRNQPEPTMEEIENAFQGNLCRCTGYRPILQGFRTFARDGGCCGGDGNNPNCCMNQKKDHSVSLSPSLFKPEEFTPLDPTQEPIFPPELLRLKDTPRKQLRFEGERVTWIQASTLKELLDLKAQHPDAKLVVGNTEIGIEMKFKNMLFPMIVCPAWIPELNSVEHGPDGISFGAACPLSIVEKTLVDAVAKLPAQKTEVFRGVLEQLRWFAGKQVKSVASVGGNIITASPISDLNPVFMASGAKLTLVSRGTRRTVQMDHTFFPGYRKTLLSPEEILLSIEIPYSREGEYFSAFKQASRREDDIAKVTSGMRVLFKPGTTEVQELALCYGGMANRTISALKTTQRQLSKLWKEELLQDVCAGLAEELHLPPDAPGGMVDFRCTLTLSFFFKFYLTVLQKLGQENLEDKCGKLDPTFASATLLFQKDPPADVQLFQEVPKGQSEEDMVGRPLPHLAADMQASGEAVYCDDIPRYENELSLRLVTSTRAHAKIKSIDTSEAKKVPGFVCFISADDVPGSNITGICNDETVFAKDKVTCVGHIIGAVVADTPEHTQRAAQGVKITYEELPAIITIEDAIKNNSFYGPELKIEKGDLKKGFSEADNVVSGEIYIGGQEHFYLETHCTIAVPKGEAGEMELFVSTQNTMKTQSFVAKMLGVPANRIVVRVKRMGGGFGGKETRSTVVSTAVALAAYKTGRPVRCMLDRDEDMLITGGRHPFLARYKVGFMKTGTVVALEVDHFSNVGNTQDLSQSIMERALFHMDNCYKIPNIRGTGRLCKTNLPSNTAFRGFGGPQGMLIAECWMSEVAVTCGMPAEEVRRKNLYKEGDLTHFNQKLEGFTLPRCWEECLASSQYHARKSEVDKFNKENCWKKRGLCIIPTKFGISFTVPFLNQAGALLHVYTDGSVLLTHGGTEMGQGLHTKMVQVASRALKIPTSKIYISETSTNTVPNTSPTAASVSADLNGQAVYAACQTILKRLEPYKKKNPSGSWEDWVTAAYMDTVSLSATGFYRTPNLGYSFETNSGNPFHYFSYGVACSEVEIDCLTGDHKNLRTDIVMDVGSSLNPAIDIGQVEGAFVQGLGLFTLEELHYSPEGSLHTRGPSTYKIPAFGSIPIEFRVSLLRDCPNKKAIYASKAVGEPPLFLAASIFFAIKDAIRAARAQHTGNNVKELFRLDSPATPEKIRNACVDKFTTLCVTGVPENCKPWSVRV

Compound: O=C1O[C@H]([C@@H](O)CO)C(O)=C1O [Vitamin C, ascorbic acid]
% of inhibition of DPPH radical/control ([1]; 0.0003 % (w/v)): 19%
% of inhibition of DPPH radical/control ([1]; 0.001 % (w/v)): 58%
% of inhibition of DPPH radical/control ([1]; 0.003 % (w/v)): 74%
% of inhibition of DPPH radical/control ([1]; 0.01 % (w/v)): 68%

Compound: O=c1cc(-c2ccc(O)cc2)oc2cc(O)cc(O)c12 [apigenin]
antibacterial activity among standards of the identified flavonoids [2]: highest activity
percentage of seed germination and root and epicotyl growth [3]: decrease

Compound: OC[C@H]1O[C@@H](Oc2ccc(O)cc2)[C@H](O)[C@@H](O)[C@@H]1O [arbutin]
Rate of cellular proteins (B16 melanocytes; dose 0.2 % w/v): 91 % against control
Rate of melanin (B16 melanocytes; dose 0.2 % w/v): 64 % against control
rate of released melanin (comment) (B16 melanocytes): strongly decreased

% of inhibition (lipoxygenase, released superoxide anions) (Lipoxygenase; 0.00002 % (w/v)): 18%
% of inhibition (lipoxygenase, released superoxide anions) (Lipoxygenase; 0.0002 % (w/v)): 53%
Compound: O=C(O)/C=C/c1ccc(O)c(O)c1 [caffeic acid]

Compound: O=c1cc(CO)occ1O [kojic acid]
Rate of cellular proteins (B16 melanocytes; dose 0.03 % w/v): 109 % against control
Rate of melanin (B16 melanocytes; dose 0.03 % w/v): 32 % against control
rate of released melanin (comment) (B16 melanocytes): strongly decreased

Compound: OC[C@@H](O)[C@@H](O)[C@H](O)[C@H](O)CO [mannitol]
% of inhibition of HO— radical/control ([4]; 0.06 % (w/v)): 25%
% of inhibition of HO— radical/control ([4]; 0.6 % (w/v)): 68%

Compound: c1cnc2c(c1)ccc1cccnc12 [o-phenanthroline]
% of inhibition of HO— radical/control ([5]; 0.02 % (w/v)): 42%
% of inhibition of HO— radical/control ([5]; 0.06 % (w/v)): 71%

Compound: O=c1c(O)c(-c2ccc(O)c(O)c2)oc2cc(O)cc(O)c12 [quercetin]
antibacterial activity among standards of the identified flavonoids [2]: highest activity
percentage of seed germination and root and epicotyl growth [3]: decrease

% of inhibition of O2— radical against control (Xanthine oxidase; 0.5 U/ml): 18%
% of inhibition of O2— radical against control (Xanthine oxidase; 5 U/ml): 50%
% of inhibition of O2— radical against control (Xanthine oxidase; 50 U/ml): 95%
IC50 (Xanthine oxidase; enzyme reference, Units/ml): 5 U/ml
Compound: SOD: superoxyde dismutase, enzyme used as reference, dosed in U/ml

Compound: Vitamin E
rate of released MDA from UV-A irradiated fibroblasts (comment) (human fibroblasts; UV-A irradiated human fibroblasts): strongly decreased
Rate of released MDA (human fibroblasts; dose 0.0003 % w/v, UV-A 20 J/cm2 (irradiated control = 100)): 7 % against control
